Read-outs that look alike come from different tables or passages of the source.
What was measured:
[1] = Bleach stability index (BSI) test: % AvO loss of perfumed bleach product in accelerated aging, by iodometric titration; settings: perfume ingredient at 0.2% via AE3S in PAP finished product, pH 3.8; 2 weeks at 40°C; BSI of at least 80% = not more than 20% AvO loss
Experimental: (§1) For this test, the pure perfume chemicals to be tested were diluted at 0.2% via a solubiliser, namely C10-C18 sodium alkyl sulfate condensed with an average of three moles of ethylene oxide (AE3S), then incorporated in a finished product and then subjected to the accelerated aging test. The accelerated aging test is set up as follows: 15 to 20g of each of the finished product incorporating the perfume ingredient was taken and placed in an oven for 2 weeks at 40°C. The aged samples were compared versus freshly made perfumed product (The reference) by measuring the AvO before storage from the reference and after storage from the aged product and expressing the difference in AvO as % loss.
(§2) The loss of available oxygen (AvO) of a bleach-containing composition over time can be measured with the iodometric titration method in which the bleach is reduced by excess potassium iodide and the iodine formed is determined by titration with sodium thiosulphate.

[2] = pH 3.8
Experimental: as §1, §2

Row | Compound | bleach stability index (BSI) [1] | bleach stability index (BSI) [2]
1 | 2,5,10-Trimethyl-2,5,9-cyclododecatrien-1-yl methyl ketone & isomers [trimofix o] | at least 80% | 
2 | CC(C)CCCC1=CCC(C)(C=O)CC1 (stereo not shown) [1-Methyl-4-(4-methylpentyl)-3-cyclohexenecarbaldehyde] | at least 80% | 
3 | C=CC(C)(C#N)Cc1ccccc1 (stereo not shown) [2-Benzyl-2-methyl-3-butenenitril] | at least 80% | 
4 | CC=CC(=O)C1=C(C)CCCC1(C)C [2-Buten-1-one, 1-(2,6,6-trimethyl-1-cyclohexen-1-yl)-] | at least 80% | 
5 | CC(CO)CC(C)c1ccccc1 (stereo not shown) [2-Methyl-4-phenyl-1-pentanol] | at least 80% | 
6 | CC=CC(=O)OC1CCCC1C1CCCC1 (stereo not shown) [2-cyclopentyl-cyclopentyl 2-butenoate] | at least 80% | 
7 | CC(C)=CCCC(C)=CC#N [3,7-dimethyl-2,6-octadienenitrile] | at least 80% | 
8 | C=CCCCCCCCC=CCC#N [3,12-tridecadiene nitrile] | at least 80% | 
9 | OCC=Cc1ccccc1 [3-Phenyl-2-propen-1-ol] | at least 80% | 
10 | CC=C1CC2CC1C1CCCOC21 (stereo not shown) [5,8-Methano-2H-1-benzopyran, 6-ethylideneoctahydro-] | at least 80% | 
11 | CCCCCCC=CC(=O)OC [Beauvertate, methyl-2-nonenoate] | at least 80% | 
12 | CC(C)=CCCC(C)CC=O (stereo not shown) [Citronellal, 3,7-Dimethyl-6-octen-1-al] | at least 80% | 
13 | C=CC(C)CCCC(C)(C)O (stereo not shown) [Dihydro myrcenol, 2,6-dimethyl-7-octen-2-ol] | at least 80% | 
14 | CCOC(=O)C1=C(C)C=CCC1(C)C [Ethyl safranate, ethyl 2,6,6-trimethyl-1,3-cyclohexdiene-1-carboxylate] | at least 80% | 
15 | CC1=CC(C)C(CO)CC1 (stereo not shown) [Floralol, dimethyl cyclohexene methanol] | at least 80% | 
16 | CCC(=O)OC1CC2CC1C1CC=CC21 (stereo not shown) [Frutene, tricyclo decenyl propionate] |  | at least 80%
17 | CC=CC(=O)OC(C)CC(C)C (stereo not shown) [Frutinat.exp, 4-methyl-pentan-2-ol 2-butenoate] | at least 80% | 
18 | CC=CC(=O)OCCCCCC [Hexyl crotonate, hexyl 2-butenoate] | at least 80% | 
19 | C=CC(C)(O)CCC=C(C)C (stereo not shown) [Linalool, 3,7-Dimethyl-1,6-octadien-3-ol] | at least 80% | 
20 | C=CC(=C)CCCC(C)(C)OC(C)=O [Myrcenyl acetate crude, 3-methylene-7-methyl-1-octen-7-yl acetate] | at least 80% | 
21 | CC(=O)OCC=C(C)C [Prenyl acetate, 2-methylbuten-2-ol-4-acetate] | at least 80% | 
22 | CC1=CCC(CCC(C)C(C)O)C1(C)C (stereo not shown) [Sandalore, 5-(2,2,3-Trimethyl-3-cyclopentenyl)-3-methylpentan-2-ol] | at least 80% | 
23 | CCC(=CCC1CC=C(C)C1(C)C)CO (stereo not shown) [Sanjinol, 2-Ethyl-4-(2,2,3-trimethyl-3-cyclopenten-1-yl)-2-buten-1-ol] | at least 80% | 
24 | C=CCOC(=O)COCCC(C)C [allyl amyl glycolate] | at least 80% | 
25 | CC=CC(=O)C1C(C)=CCCC1(C)C (stereo not drawn) [alpha-damascone, 2-Buten-1-one, 1-(2,6,6-trimethyl-2-cyclohexen-1-yl)-] | at least 80% | 

Row | Compound | bleach stability index (BSI) [1] | bleach stability index (BSI) [2]
26 | O=C1CCCC=CCCCCCCCCCC1 [ambretone] | at least 80% | 
27 | C=CC(O)CCCCC (stereo not shown) [amyl vinyl carbinol] | at least 80% | 
28 | C=C(C=O)C(C)CCC=C(C)C (stereo not shown) [bergamal] | at least 80% | 
29 | CC1=CCC(CC#N)C1(C)C (stereo not shown) [cantryl] | at least 80% | 
30 | OC/C=C/c1ccccc1 [cinnamic alcohol] | at least 80% | 
31 | CC(C)=CCCC(C)CCO (stereo not shown) [citronellol, 3,7-dimethyl-6-octen-1-ol] | at least 80% | 
32 | CC(=O)OCCC(C)CCC=C(C)C (stereo not shown) [citronellyl acetate] | at least 80% | 
33 | O=c1ccc2ccccc2o1 [coumarin, 1,2-benzopyrone] | at least 80% | 
34 | C=CCOC(=O)COCCCCC [glycolic acid, 2-pentyloxy:allyl ester] |  | at least 80%
35 | CCCCCCC(C=O)=Cc1ccccc1 [hexyl cinnamic aldehyde] | at least 80% | 
36 | CC(=O)/C=C/C1C(C)=CCCC1(C)C (stereo not drawn) [ionone alpha] | at least 80% | 
37 | CC(=O)/C=C/C1=C(C)CCCC1(C)C [ionone beta] | at least 80% | 
38 | C/C=C(/C)C(=O)OCC(C)C [isobutyl angelate] | at least 80% | 
39 | CC(C)C=CC(=O)CC(C)C [isotagetone 50, 2,7-Dimethyloct-5-en-4-one] | at least 80% | 
40 | COC(=O)c1ccccc1N=CC1CCC(C)=CC1C (stereo not shown) [ligantraal, Methyl 2-((-1-(2,4-dimethyl-3-cyclohexenyl)methylidene)amino)-1-benzenecarboxylate] | at least 80% | 
41 | C=CC(C)(CCC=C(C)C)OC(C)=O (stereo not shown) [linalyl acetate] | at least 80% | 
42 | CC(C)(O)CCCC1=CCC(C=O)CC1 (stereo not shown) [lyral] | at least 80% | 
43 | CC1(C)CCCC2=C1CC(C=O)CC2 (stereo not shown) [melafleur] | at least 80% | 
44 | CCCC(C)C=Nc1ccccc1C(=O)OC (stereo not shown) [mevantraal (q), Methyl 2-((-2-methylpentylidene)amino)-1-benzenecarboxylate] | at least 80% | 
45 | CC(C)=CCOC(=O)c1ccccc1O [prenyl salicylate] | at least 80% | 
46 | C=CCCCCCCCCO [rosalva, 9-Decen-1-ol] | at least 80% | 
47 | CCC/C=C/C=O [trans-2-hexenal] | at least 80% | 
48 | CCC/C=C/CO [trans-2-hexenol] | at least 80% | 
49 | CCC=C(C)C(O)CCCCC (stereo not shown) [undecavertol, 4-Methyl-3-decen-5-ol] | at least 80% | 

Reference: patent publication EP1072673A2, “Perfume compositions” (THE PROCTER & GAMBLE COMPANY, priority 1999, dated 2001)
